# Laboratory results from patent US12696899B2, “Microbiocidal 2-acylamino-thiazole-4-carboxamide derivatives” (SYNGENTA CROP PROTECTION AG, priority 2018, dated 2026).
# Like-named read-outs stand apart in the source and are kept apart here.
# Key:
# [1] = pH 7.2
# [2] = Photostability, thin-film irradiation in Atlas Suntest xenon lamp; type: physicochemical; details: thin film on glass, Suntest 750 W/m2; time for first 50% loss
# Procedure: Photostability tests were carried out by irradiation of thin-film deposits of compounds and formulations on glass surfaces, using a filtered xenon lamp system (Atlas Suntest) which reproduces the spectrum and intensity of sunlight. The spectral output power of the Suntest was set to 750 W/m2, which is the typical daily maximum irradiance level at noon (UK, midsummer).
# Test compounds were typically dissolved in HPLC grade methanol to give 1 g/L stock solutions. Alternatively, formulated compounds were suspended in water at the same concentration. 2 μL droplets of test solutions were spotted onto microscope cover slips in a 3D printed holder, allowed to dry then irradiated in the Suntest for varying times. Cover slips were then removed from the Suntest and placed in 4 dram vials; 1 mL of wash solvent (typically 30:70 acetonitrile: 0.2% aqueous formic acid) was added, and the vials shaken to extract compounds into solution. Solutions were analysed by reverse phase HPLC, typically using a Waters UPLC system with Photodiode Array (PDA) and Waters columns (BEH C18, 100×2.1 mm×1.7 μm) using mixed aqueous:acetonitrile mobile phase, acidifed with 0.2% formic acid. Peak detection was at the optimum wavelength for each candidate compound and PDA peak areas were used for quantification. Plots of % loss versus time were used to estimate T50 values, being the time taken for first 50% loss of test compound.
# physchem = details: pH 7
# [3] = Octanol-water partition coefficient (Log P) by HPLC on octanol-coated mini-columns; details: pH 7
# [4] = Solubility in aqueous buffer (10 mM mixed phosphate, pH 7.20)
# Fusarium culmorum = type: in vivo; details: 200 ppm; wheat spikelet preventative; compared to untreated control
# [5] = test system: Magnaporthe grisea (Pyricularia oryzae); assay: whole plant or invertebrate; type: in vivo; details: foliar, read-out: control of Magnaporthe grisea
# Pyrenophora teres = assay: Example B15 Pyrenophora teres/barley/leaf disc preventative (net blotch); type: in vivo; details: foliar, barley leaf disc preventative, compared to untreated control
# [6] = test system: Gibberella zeae (Fusarium graminearum); type: in vivo; details: 200 ppm; wheat spikelet preventative; compared to untreated control
Structure (SMILES),Solubility in water [1],Photostability T50 [2],chromatographic logP (physchem),also measured
"Cc1sc(N(C(=O)c2ccco2)c2cc(F)nc(F)c2)nc1C(=O)NC1CCC1(C)C (stereo not shown) [I.b.614, 2-[(2,6-difluoro-4-pyridyl)-(furan-2-carbonyl)amino]-N-(2,2-dimethylcyclobutyl)-5-methyl-thiazole-4-carboxamide]",0.054 ppm,14 h,4.61,
"CCOC(=O)C(=O)N(c1cc(F)nc(F)c1)c1nc(C(=O)NC2CCC2(C)C)c(C)s1 (stereo not shown) [I.b.612, ethyl 2-[(2,6-difluoro-4-pyridyl)-[4-[(2,2-dimethylcyclobutyl)carbamoyl]-5-methyl-thiazol-2-yl]amino]-2-oxo-acetate]",,5.5 h,4.34,
"COC(=O)N(c1cc(F)nc(F)c1)c1nc(C(=O)NC2CCC2(C)C)c(C)s1 (stereo not shown) [I.b.598, methyl N-(2,6-difluoro-4-pyridyl)-N-[4-[(2,2-dimethylcyclobutyl)carbamoyl]-5-methyl-thiazol-2-yl]carbamate]",,6.2 h,,chromatographic logP [3]: 4.21; Solubility in heptane (Solubility in heptane): 1155 ppm; Solubility in water [4]: 1.4 ppm
"Cc1sc(Nc2cc(F)nc(F)c2)nc1C(=O)NC1CCC1(C)C (stereo not shown) [Compound E-0, 2-[(2,6-difluoro-4-pyridyl)amino]-N-(2,2-dimethylcyclobutyl)-5-methyl-thiazole-4-carboxamide, reference compound]",0.70 ppm,3.5 h,,
"COCC(=O)N(c1cc(F)nc(F)c1)c1nc(C(=O)NC2CCC2(C)C)c(C)s1 (stereo not shown) [I.b.600, 2-[(2,6-difluoro-4-pyridyl)-(2-methoxyacetyl)amino]-N-(2,2-dimethylcyclobutyl)-5-methyl-thiazole-4-carboxamide]",18 ppm,2.8 h,3.35,control of Fusarium culmorum (Fusarium culmorum): at least 80%
"Cc1sc(N(C(=O)Oc2ccccc2)c2cc(F)nc(F)c2)nc1C(=O)NC1CCC1(C)C (stereo not shown) [I.b.616, phenyl N-(2,6-difluoro-4-pyridyl)-N-[4-[(2,2-dimethylcyclobutyl)carbamoyl]-5-methyl-thiazol-2-yl]carbamate]",,18 h,,chromatographic logP [3]: 5.34; Solubility in heptane (Solubility in heptane): 673 ppm; Solubility in water [4]: 0.10 ppm
"CCOC(=O)N(c1cc(F)nc(F)c1)c1nc(C(=O)NC2CCC2(C)C)c(C)s1 (stereo not shown) [I.b.599, ethyl N-(2,6-difluoro-4-pyridyl)-N-[4-[(2,2-dimethylcyclobutyl)carbamoyl]-5-methyl-thiazol-2-yl]carbamate]",1.0 ppm,11 h,4.58,
"COCC(=O)N(c1cc(F)nc(F)c1)c1nc(C(=O)NC2CCC23CCCC3)c(C)s1 (stereo not shown) [I.c.600, 2-[(2,6-difluoro-4-pyridyl)-(2-methoxyacetyl)amino]-5-methyl-N-spiro[3.4]octan-3-yl-thiazole-4-carboxamide]",,,,pest or weed control at 200 ppm [5]: ≥ 80%; pest or weed control at 200 ppm (Pyrenophora teres): ≥ 80%
"CC(=O)N(c1cc(F)nc(F)c1)c1nc(C(=O)NC2CCC2(C)C)c(C)s1 (stereo not shown) [I.b.596, 2-[acetyl-(2,6-difluoro-4-pyridyl)amino]-N-(2,2-dimethylcyclobutyl)-5-methyl-thiazole-4-carboxamide]",3.7 ppm,5.5 h,3.8,
"COC(=O)CC(=O)N(c1cc(F)nc(F)c1)c1nc(C(=O)NC2CCC2(C)C)c(C)s1 (stereo not shown) [I.b.607, methyl 3-[(2,6-difluoro-4-pyridyl)-[4-[(2,2-dimethylcyclobutyl)carbamoyl]-5-methyl-thiazol-2-yl]amino]-3-oxo-propanoate]",12 ppm,4.4 h,3.59,control of Gibberella zeae [6]: at least 80%
"Cc1sc(N(C=O)c2cc(F)nc(F)c2)nc1C(=O)NC1CCC1(C)C (stereo not shown) [I.b.595, 2-[(2,6-difluoro-4-pyridyl)-formyl-amino]-N-(2,2-dimethylcyclobutyl)-5-methyl-thiazole-4-carboxamide]",2.5 ppm,2.8 h,3.61,
